In ChEMBL document CHEMBL1201862, “PubChem BioAssay data set” (2004):
The source made the active and inactive calls.

Assays:
[1] = target: T1, Short transient receptor potential channel 4 (Mus musculus, UniProt Q9QUQ5); test: mouse TRPC4 channel inhibitors, dose response, cell-based, HEK293 TRPC4/mu-opioid, Fluo-4 calcium (AID 434942); format: functional;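 also: potency of inhibitors blocking the TRPC4 calcium response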
T1 sequence (Q9QUQ5 whole entry): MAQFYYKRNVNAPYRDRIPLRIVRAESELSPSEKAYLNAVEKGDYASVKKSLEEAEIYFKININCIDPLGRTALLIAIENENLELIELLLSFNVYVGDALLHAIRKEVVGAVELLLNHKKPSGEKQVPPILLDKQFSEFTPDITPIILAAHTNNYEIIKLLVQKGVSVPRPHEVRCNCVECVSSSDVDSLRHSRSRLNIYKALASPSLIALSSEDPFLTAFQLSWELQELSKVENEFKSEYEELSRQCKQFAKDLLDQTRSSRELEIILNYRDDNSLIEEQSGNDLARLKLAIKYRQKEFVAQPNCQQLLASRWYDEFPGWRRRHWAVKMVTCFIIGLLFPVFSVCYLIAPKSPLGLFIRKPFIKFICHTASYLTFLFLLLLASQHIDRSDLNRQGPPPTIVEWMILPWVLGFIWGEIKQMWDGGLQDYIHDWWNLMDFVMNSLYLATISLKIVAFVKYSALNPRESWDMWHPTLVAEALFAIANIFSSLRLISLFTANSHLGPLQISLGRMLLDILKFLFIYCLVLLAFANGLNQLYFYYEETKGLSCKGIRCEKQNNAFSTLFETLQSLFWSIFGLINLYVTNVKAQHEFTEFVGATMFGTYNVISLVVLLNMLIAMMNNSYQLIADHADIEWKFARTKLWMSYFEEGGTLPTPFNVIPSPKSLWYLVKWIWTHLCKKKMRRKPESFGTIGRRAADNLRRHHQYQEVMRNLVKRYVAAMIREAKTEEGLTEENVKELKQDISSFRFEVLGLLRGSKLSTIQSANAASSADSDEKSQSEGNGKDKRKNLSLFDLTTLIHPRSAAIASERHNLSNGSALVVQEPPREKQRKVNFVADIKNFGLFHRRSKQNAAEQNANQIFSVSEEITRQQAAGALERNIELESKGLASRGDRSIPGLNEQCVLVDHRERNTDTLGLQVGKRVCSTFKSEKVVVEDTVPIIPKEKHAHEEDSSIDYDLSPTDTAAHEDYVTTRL

[2] = target: Ras and Rab interactor 1/Tyrosine-protein kinase ABL1 (Homo sapiens, UniProt P00519+Q13671); format: functional;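 also: biochemical TR-FRET dose-response test measuring inhibition of binding between Rin1 and Abl proteins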
[3] = Shn3 3'UTR reporter inhibitors, dose response, cell-based, Clone20 osteoblasts, firefly luciferase, cherry-picked (AID 624132); format: functional;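 also: firefly luciferase luminescence from reporter carrying the Shn3 3'UTR in osteoblasts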
[4] = HepG2 cell cytotoxicity, dose response, cytotoxicity control for Shn3 inhibitor project, CellTiter-Glo, cherry-picked (AID 624134); format: functional, cell-based
[5] = control 3'UTR Renilla luciferase suppression, dose response, counter-screen for Shn3 inhibitor project, cell-based, Clone20-Shn3RL, cherry-picked (AID 624133); format: functional
Protein Wnt-3a = Protein Wnt-3a (Mus musculus, UniProt P27467); test: Wnt3a-driven reporter signaling inhibition, dose response, selectivity assay for Gli-SUFU antagonist project, Wnt-LIGHT cells, luminescence (AID 651570); format: functional; conditions: read-out: IC50_Mean;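 also: Wnt-LIGHT reporter cells stimulated with conditioned medium from Wnt3a-producing cells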
Vero [6] = test: cells; format: functional, cell-based; conditions: Chlorocebus sabaeus
Vero [7] = test: cells; format: functional; conditions: Chlorocebus sabaeus
BJ [8] = test: cytotoxicity toward BJ-TERT fibroblasts, dose response, cell-based, RAS-independent, luminescence (AID 1933); format: functional; conditions: Homo sapiens
BJ [9] = test: cells; format: functional, cell-based; conditions: Homo sapiens
BJ [10] = test: cytotoxicity toward BJ-TERT-LT-ST fibroblasts, dose response, cell-based, RAS-independent, luminescence (AID 1935); format: functional; conditions: Homo sapiens;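 also: BJ fibroblasts immortalized with TERT plus LT and ST oncogenes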
[11] = cytotoxicity toward DRD oncogenic fibroblasts, dose response, cell-based, non-viral oncogenic, luminescence (AID 1934); format: functional; conditions: Homo sapiens
INS1 = test: beta cell apoptosis inhibitors, cytokine rescue, dose response, luminescence, retest (AID 449756); format: functional, cell-based; conditions: Rattus norvegicus;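 also: cell death triggered by IL-1 beta plus TNF-alpha plus IFN-gamma mixture; protective hits raise ATP signal compared with cytokine alone wells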
[12] = CRF-BP/CRF-R2 complex antagonists, dose response, cell-based, uHTS hits, 384-well (AID 651639); format: functional, Homo sapiens; conditions: read-out: IC50_Mean
[13] = HEp-2 cell cytotoxicity, dose response, cytotoxicity control for RSV inhibitor project, HTS (AID 2410); format: functional; conditions: human respiratory syncytial virus
[14] = Luminescence Cell-Based Dose Response HTS to Identify Inhibitors of 5'UTR Stem-Loop Driven Prion Protein mRNA Translation in H4 Neuroglioblastoma Cells. [Related pubchem assays: 1827 (Project Summary), 1813 (Primary HTS)]; format: functional
[15] = inhibitors of SNCA 5'UTR-driven reporter translation, confirmation, H4 neuroglioma cells, luminescence (AID 1988); format: functional, cell-based
[16] = growth suppression of PTEN-null colon cells, dose response, cell-based, HCT116 PTEN knockout (AID 1047); format: functional;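 also: HCT116 colon tumor cells with PTEN knocked out; cells exposed to compound for 60 hours before readout; potency for loss of cell viability measured by luminescence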
[17] = growth suppression of beta-catenin-knockout colon cells, dose response, cell-based, HCT116, human colon tumor (AID 1045); format: functional;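 also: HCT116 colon tumor cells with beta catenin knocked out; cells exposed to compound for 60 hours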
Coagulation factor XII = target: T2, Coagulation factor XII (Homo sapiens, UniProt P00748); format: functional;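 also: activated factor XIIa alpha cleaving a fluorogenic AMC peptide substrate; inhibitor potency from loss of enzyme activity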
T2 sequence (P00748 whole entry): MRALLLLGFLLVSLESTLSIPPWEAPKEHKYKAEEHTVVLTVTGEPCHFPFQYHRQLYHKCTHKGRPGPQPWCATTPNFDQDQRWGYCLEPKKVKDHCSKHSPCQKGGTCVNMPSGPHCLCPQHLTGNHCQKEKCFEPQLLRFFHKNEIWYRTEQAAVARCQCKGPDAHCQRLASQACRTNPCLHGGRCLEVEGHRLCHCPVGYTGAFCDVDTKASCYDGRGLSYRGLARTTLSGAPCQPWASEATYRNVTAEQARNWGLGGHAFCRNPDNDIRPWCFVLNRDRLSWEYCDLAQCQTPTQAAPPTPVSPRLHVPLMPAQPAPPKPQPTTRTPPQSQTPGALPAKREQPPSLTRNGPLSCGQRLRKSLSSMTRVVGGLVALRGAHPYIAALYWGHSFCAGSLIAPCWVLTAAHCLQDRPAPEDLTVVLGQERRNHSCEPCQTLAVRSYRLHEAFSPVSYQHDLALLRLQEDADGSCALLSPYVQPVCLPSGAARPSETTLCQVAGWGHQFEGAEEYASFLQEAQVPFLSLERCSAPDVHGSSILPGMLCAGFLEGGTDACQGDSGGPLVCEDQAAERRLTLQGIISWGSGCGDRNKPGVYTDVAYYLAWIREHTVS

[18] = target: T3, Heat shock factor protein 1 (Mus musculus, UniProt P38532); test: HSF1 potentiators in luciferase reporter cells, confirmation, cell-based, NIH3T3, luminescence, dose retest (AID 435004); format: functional;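 also: stress induced by proteasome inhibitor MG132 added 30 min after compound; luciferase reporter driven by HSF1 response element in NIH3T3 cells; actives raise luminescence as potentiators of the MG132 stress response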
T3 sequence (P38532 whole entry): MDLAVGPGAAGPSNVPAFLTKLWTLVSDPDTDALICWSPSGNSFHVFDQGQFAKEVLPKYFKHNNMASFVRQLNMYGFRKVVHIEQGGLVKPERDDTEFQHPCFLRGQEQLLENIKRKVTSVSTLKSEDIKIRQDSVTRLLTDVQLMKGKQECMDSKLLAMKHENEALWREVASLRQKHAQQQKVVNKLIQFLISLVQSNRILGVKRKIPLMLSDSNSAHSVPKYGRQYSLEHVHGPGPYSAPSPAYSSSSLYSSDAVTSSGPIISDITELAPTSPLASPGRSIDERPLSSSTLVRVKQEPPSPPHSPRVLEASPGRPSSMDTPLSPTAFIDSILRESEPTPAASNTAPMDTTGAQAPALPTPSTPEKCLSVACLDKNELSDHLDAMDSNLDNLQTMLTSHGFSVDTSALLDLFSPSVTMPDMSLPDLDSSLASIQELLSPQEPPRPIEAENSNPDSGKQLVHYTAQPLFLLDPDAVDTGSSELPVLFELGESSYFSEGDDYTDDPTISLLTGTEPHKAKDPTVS

Sequence of Ras and Rab interactor 1/Tyrosine-protein kinase ABL1 (P00519 whole entry): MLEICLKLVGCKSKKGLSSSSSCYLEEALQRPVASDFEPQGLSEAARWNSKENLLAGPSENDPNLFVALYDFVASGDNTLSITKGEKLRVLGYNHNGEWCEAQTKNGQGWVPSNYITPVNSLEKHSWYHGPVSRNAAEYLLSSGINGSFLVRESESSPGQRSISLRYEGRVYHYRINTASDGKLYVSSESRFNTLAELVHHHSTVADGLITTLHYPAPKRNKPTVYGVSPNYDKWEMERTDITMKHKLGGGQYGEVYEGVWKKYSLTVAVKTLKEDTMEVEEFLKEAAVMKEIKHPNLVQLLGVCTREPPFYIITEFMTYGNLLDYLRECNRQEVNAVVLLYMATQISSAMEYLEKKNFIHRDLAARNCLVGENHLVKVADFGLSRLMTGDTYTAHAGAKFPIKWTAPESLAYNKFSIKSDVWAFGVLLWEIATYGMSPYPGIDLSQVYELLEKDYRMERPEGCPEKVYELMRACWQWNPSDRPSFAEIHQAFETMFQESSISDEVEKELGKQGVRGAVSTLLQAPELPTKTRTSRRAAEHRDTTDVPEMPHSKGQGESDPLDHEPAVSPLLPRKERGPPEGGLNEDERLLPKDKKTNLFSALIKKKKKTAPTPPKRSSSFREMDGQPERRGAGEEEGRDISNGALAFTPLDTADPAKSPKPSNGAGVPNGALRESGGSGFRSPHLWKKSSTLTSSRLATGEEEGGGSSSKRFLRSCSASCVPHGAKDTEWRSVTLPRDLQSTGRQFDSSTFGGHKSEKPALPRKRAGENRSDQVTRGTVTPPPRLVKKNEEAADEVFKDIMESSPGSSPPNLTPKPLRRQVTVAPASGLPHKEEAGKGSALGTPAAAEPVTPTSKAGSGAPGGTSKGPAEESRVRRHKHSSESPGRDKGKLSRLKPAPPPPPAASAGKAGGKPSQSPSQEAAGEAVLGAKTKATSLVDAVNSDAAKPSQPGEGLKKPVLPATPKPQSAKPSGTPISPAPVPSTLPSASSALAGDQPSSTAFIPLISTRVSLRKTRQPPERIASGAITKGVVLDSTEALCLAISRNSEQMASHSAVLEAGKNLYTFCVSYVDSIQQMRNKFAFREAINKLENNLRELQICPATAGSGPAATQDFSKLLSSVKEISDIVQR
Sequence of Ras and Rab interactor 1/Tyrosine-protein kinase ABL1 (Q13671 whole entry): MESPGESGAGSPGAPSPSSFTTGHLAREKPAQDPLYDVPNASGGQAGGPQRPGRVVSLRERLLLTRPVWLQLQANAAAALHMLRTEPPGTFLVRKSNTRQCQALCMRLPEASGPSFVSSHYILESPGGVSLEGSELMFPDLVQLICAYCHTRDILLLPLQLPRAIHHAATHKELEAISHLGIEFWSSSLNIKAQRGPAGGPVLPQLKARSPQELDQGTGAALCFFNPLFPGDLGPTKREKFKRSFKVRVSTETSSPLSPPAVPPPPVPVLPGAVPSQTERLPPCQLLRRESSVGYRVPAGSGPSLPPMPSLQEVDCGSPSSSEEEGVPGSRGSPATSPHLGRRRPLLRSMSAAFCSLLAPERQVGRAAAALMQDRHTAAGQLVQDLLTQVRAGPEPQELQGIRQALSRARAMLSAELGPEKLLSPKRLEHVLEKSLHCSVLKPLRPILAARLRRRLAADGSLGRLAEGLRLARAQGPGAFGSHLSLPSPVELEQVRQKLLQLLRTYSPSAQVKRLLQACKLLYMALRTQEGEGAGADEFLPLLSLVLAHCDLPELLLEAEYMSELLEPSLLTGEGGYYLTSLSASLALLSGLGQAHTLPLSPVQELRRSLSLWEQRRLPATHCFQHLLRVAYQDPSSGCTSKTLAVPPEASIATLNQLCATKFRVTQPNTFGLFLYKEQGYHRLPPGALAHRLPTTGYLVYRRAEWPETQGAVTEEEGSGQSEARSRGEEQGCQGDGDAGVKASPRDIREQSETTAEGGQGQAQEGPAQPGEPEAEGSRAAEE
Sequence of Protein Wnt-3a (P27467 whole entry): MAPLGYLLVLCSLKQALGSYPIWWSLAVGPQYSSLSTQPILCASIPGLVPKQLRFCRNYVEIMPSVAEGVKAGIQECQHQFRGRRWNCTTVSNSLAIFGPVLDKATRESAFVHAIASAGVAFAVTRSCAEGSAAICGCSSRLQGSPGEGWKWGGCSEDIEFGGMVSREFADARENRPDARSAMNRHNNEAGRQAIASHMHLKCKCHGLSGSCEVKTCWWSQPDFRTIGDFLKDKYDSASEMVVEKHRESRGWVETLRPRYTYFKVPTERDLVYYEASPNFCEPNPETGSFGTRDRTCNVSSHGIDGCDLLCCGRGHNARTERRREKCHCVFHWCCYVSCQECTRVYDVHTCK

## CCOc1ccccc1N(C(=O)c1snc(C(N)=O)c1N)C(C(=O)NCc1ccccc1)c1ccc(O)cc1 (stereo not given)
[1]
  EC50: 4.22 µM (active)
[2]
  IC50: > 73.5 µM (inactive)

## CC(=O)Nc1cccc(-c2ccnc3c2CC(C(=O)NCc2ccc(N4CCN(C)CC4)cc2)O3)c1 (stereo not given)
[2]
  IC50: 14.4 µM (inactive)

## Cc1cc(C)c(C(N)=O)c(SCC(=O)c2cc(C)n(-c3cc(C)on3)c2C)n1
[3]
  AC50: 0.942 µM (active)
[4]
  AC50: 1.68 µM (active)
[5]
  AC50: 0.332 µM (active)
Protein Wnt-3a
  IC50: 1.8 µM (active)

## CN(C)CC1CCC/C(=C/c2ccc(Cl)cc2)C1=O (stereo not given)
Vero [6]
  IC50: > 25 µM (active)
Vero [7]
  CC50: 21.4 µM (active)

## O=c1[nH]c(=O)n(-c2ccc(F)cc2)c2c1C(C(F)(F)F)(C(F)(F)F)NC(c1ccc(F)cc1)=N2
BJ [8]
  EC50: > 150 µM (not active)
BJ [9]
  EC50: 66.7 µM (inconclusive)
BJ [10]
  EC50: > 150 µM (not active)
[11]
  EC50: 25.7 µM (active)
INS1
  AC50: 5.15 µM (active)
[12]
  IC50: 13.2 µM (active)

## CCOCc1nnc(NC(=O)c2c(OC)cccc2OC)s1
[2]
  IC50: 18 µM (inactive)

## Cc1cc(C(=O)Cn2nnc3ccccc3c2=O)c(C)n1-c1ccccc1F
[13]
  CC50: 20.4 µM (active)
[14]
  EC50: 10.1 µM (active)
[15]
  EC50: 9.28 µM (active)
Vero [6]
  IC50: 6.16 µM (active)
cells
  IC50: 30.9 µM (active)

## O=C(CN(C(=O)c1ccccc1Cl)C1CCCCC1)Nc1ccc(Cl)c([N+](=O)[O-])c1
[16]
  EC50: 16.1 µM (active)
[17]
  EC50: 17.4 µM (active)
Coagulation factor XII
  IC50: > 50 µM (inactive)
[18]
  EC50: > 260 µM (inactive)
[3]
  AC50: 5.1 µM (active)
[4]
  AC50: 63.7 µM (active)
[5]
  AC50: 10.8 µM (active)

## COc1ccc(-[n+]2cc(-c3ccc(OC(F)F)cc3)n3c2CCCCC3)cc1
INS1
  AC50: 2.14 µM (active)
Protein Wnt-3a
  IC50: 12.3 µM (active)
